# Measured values published in US8436043B2 (Takeda Pharmaceutical Company Limited, priority 2008, dated 2013).
# Biological target: T1, human glucagon receptor (Homo sapiens, UniProt P47871)
# T1 construct: made in house; host or cells: FreeStyle CHO cells, transient transfection with pMSRαneo/hGCGR; membrane fraction (35,000 rpm pellet)
# Test: Glucagon binding inhibitory activity ([125I]-glucagon binding to glucagon receptor membrane protein)
# Conditions: test compound 10 μM; 0.4% DMSO = 0%, non-labeled glucagon 1 μM = 100%
# Procedure: The glucagon binding inhibitory action of the compound of the present invention was evaluated by the following method.
# (1) Cloning of Human Glucagon Receptor Gene
# Human glucagon receptor gene was cloned by PCR reaction using human pancreas Marathon-ready cDNA (Clontech) as a template and the following primer set.
# PCR reaction was performed using Advantage 2 polymerase (Clontech) and according to the attached protocol. The obtained PCR product was electrophoresed on an agarose gel (1%). An about 1.4 kb of DNA fragment containing a glucagon receptor gene was recovered from the gel and digested with restriction enzymes EcoRI and NotI. DNA treated with the restriction enzymes was electrophoresed on an agarose gel (1%). An about 1.4 kb of DNA fragment was recovered and ligated to plasmid pMSRαneo digested with restriction enzymes EcoRI and NotI to construct a human-type glucagon receptor expression plasmid DNA “pMSRαneo/hGCGR”.
# (2) Preparation of Glucagon Receptor Membrane Protein
# A human-type glucagon receptor was expressed using FreeStyle CHO Expression System (Invitrogen). A transient expression in FreeStyle CHO cell was performed using a human-type glucagon receptor expression plasmid DNA “pMSRαneo/hGCGR” and according to the manual attached to the FreeStyle CHO Expression System. The above-mentioned DNA was transfected and the cultured with shaking for 2 days (37° C., 8% CO2, 125 rpm). 2400 ml of culture medium was centrifuged at 2,000 rpm for 10 min and the cells were collected. The collected cells were washed with PBS, suspended in homogenate buffer [10 mM NaHCO3 (pH 7.4), 1 mM EDTA, Complete EDTA-free (Roche, 1 tablet/50 ml)] and disrupted by polytron cell disrupter (Kinematica AG). Disruption solution was centrifuged at 2,000 rpm for 10 min and the supernatant was collected.
# (3) Measurement of Glucagon Binding Inhibitory Activity
# The plate was stood for 90 min at room temperature. The reaction solution was transferred from the reaction plate to a 96 well unifilter GF/C plate (Perkin Elmer Inc.) using a cell harvester (Perkin Elmer Inc.) and the membrane fraction was collected on the filter by suction. The filter was presoaked in 2 mg/ml of polyethyleneimine to prevent non-specific adsorption of labeled ligand. The filter was washed 4 times with a reaction buffer and dried for 2 hr at 42° C. To each well was added 25 μl of scintillator (MicroScint0; Perkin Elmer Inc.), and the fluorescence amount was measured using a microplate scintillation counter (TopCount NXT™; Perkin Elmer Inc.).
# In addition, the inhibitory rate (%) of the well added with the test compound (10 μM; containing 0.4% DMSO) was calculated, using the reaction rate of the well added only with 0.4% DMSO as 0% inhibitory rate, and the reaction rate of the well added with non-labeled glucagon (final concentration 1 μM) as 100% inhibitory rate.
# T1 sequence (P47871 26-477): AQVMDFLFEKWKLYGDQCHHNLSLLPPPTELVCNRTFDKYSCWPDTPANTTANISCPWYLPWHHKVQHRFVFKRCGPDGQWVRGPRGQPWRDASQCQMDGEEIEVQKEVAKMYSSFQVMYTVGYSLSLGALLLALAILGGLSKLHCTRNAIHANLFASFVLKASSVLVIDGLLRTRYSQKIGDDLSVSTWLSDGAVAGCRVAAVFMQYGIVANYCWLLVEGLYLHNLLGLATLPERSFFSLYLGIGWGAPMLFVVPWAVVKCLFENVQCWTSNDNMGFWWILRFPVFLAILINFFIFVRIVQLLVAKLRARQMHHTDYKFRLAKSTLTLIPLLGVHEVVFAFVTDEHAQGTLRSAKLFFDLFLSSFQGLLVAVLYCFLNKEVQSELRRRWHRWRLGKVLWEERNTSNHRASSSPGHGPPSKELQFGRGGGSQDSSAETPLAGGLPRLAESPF
row,SMILES,inhibitory rate (%) at 10 μM
1,Cc1c(C(Nc2ccc(C(=O)N(C)CCC(=O)O)cc2)C2CCCC2)oc2ccc(F)cc12 (stereo not drawn) [Example A69],89%
2,Cc1c(C(Nc2ccc(C(=O)N(C)CCC(=O)O)nc2)C2CCCCC2)oc2ccc(F)cc12 (stereo not drawn) [Example A57],85%

# Same assay, conditions: test compound 10 μM; 0.4% DMSO = 0%, non-labeled glucagon 1 μM = 100%; read-out: inhibitory rate (%) at 10 μM
row,inhibition at 10 µM,SMILES
1,56%,"Cc1c(C(CC(C)C)Nc2ccc(C(=O)N(C)CCC(=O)O)cn2)sc2ccccc12 (stereo not drawn) [Example A38, 3-{methyl[(6-{[3-methyl-1-(3-methyl-1-benzothiophen-2-yl)butyl]amino}pyridin-3-yl)carbonyl]amino}propanoic acid]"
2,85%,"Cc1c(C(Nc2ccc(C(=O)N(C)CCC(=O)O)cc2)C2CCCCC2)oc2c(F)cc(F)cc12 (stereo not drawn) [Example A164, 3-{[(4-{[cyclohexyl(5,7-difluoro-3-methyl-1-benzofuran-2-yl)methyl]amino}phenyl)carbonyl](methyl)amino}propanoic acid]"
3,66%,"COCc1c(C(Nc2ccc(C(=O)N(C)CCC(=O)O)cc2)C2CCCCC2)oc2ccc(F)cc12 (stereo not drawn) [Example A48, 3-[{[4-({cyclohexyl[5-fluoro-3-(methoxymethyl)-1-benzofuran-2-yl]methyl}amino)phenyl]carbonyl}(methyl)amino]propanoic acid]"
4,86%,"CCCCCCC(Nc1ccc(C(=O)N(C)CCC(=O)O)cc1)c1cc2cc(Cl)ccc2n1C (stereo not drawn) [Example A141, 3-{[(4-{[1-(5-chloro-1-methyl-1H-indol-2-yl)heptyl]amino}phenyl)carbonyl](methyl)amino}propanoic acid]"
5,70%,"Cc1c(C(Nc2ccc(C(=O)N(C)CCC(=O)O)cc2)C2CCCCC2)oc2ccc(NS(C)(=O)=O)cc12 (stereo not drawn) [Example A111, 3-[({4-[(cyclohexyl{3-methyl-5-[(methylsulfonyl)amino]-1-benzofuran-2-yl}methyl)amino]phenyl}carbonyl)(methyl)amino]propanoic acid]"
6,76%,Cc1c(C(Nc2ccc(C(=O)N(C)CCC(=O)O)cc2)C2CCCCC2)oc2cc(F)ccc12 (stereo not drawn) [Example A97]
7,77%,"CN(CCC(=O)O)C(=O)c1ccc(NC(c2cc3ccccc3s2)C2CCCCC2)cc1 (stereo not drawn) [Example A5, 3-{[(4-{[1-benzothiophen-2-yl(cyclohexyl)methyl]amino}phenyl)carbonyl](methyl)amino}-propanoic acid]"
8,69%,"Cc1c(C(Nc2ccc(C(=O)NCCC(=O)O)cc2)C2CCCCC2)oc2ccc(Br)nc12 (stereo not drawn) [Example A125, 3-{[(4-{[(5-bromo-3-methylfuro[3,2-b]pyridin-2-yl)(cyclohexyl)methyl]amino}phenyl)carbonyl]amino}propanoic acid]"
9,83%,"CCCCCCC(Nc1ccc(C(=O)NCCC(=O)O)cc1)c1cc2cc(Cl)ccc2n1C (stereo not drawn) [Example A140, 3-{[(4-{[1-(5-chloro-1-methyl-1H-indol-2-yl)heptyl]amino}phenyl)carbonyl]amino}propanoic acid]"
10,87%,"Cc1c(C(Nc2ccc(C(=O)N(C)CCC(=O)O)cc2)C2CCCCC2)oc2ccc(Oc3ncccc3C#N)cc12 (stereo not drawn) [Example A198, 3-{[(4-{[{5-[(3-cyanopyridin-2-yl)oxy]-3-methyl-1-benzofuran-2-yl}(cyclohexyl)methyl]amino}phenyl)carbonyl](methyl)amino}-propanoic acid]"
11,86%,"Cc1c(C(Nc2ccc(C(=O)NCCC(=O)O)cc2)C2CCCCC2)oc2ccc(OCc3ccnc(F)c3)cc12 (stereo not drawn) [Example A167, 3-[({4-[(cyclohexyl{5-[(2-fluoropyridin-4-yl)methoxy]-3-methyl-1-benzofuran-2-yl}methyl)amino]phenyl}carbonyl)amino]propanoic acid]"
12,66%,"CN(CCC(=O)O)C(=O)c1ccc(NC(c2cc3ccccc3o2)C2CCCCC2)cc1 (stereo not drawn) [Example A4, 3-{[(4-{[1-benzofuran-2-yl(cyclohexyl)methyl]amino}phenyl)carbonyl](methyl)amino}-propanoic acid]"
13,70%,"COc1ccc2oc(C(Nc3ccc(C(=O)N(C)CCC(=O)O)cc3)c3ccccc3)c(C)c2c1 (stereo not drawn) [Example A114, 3-{[(4-{[(5-methoxy-3-methyl-1-benzofuran-2-yl)(phenyl)methyl]amino}phenyl)carbonyl](methyl)amino}-propanoic acid]"
14,90%,"Cc1c(C(Nc2ccc(C(=O)N(C)CCC(=O)O)cc2)C2CCCCC2)oc2ccc(OCC3CCCO3)cc12 (stereo not drawn) [Example A209, 3-[{[4-({cyclohexyl[3-methyl-5-(tetrahydrofuran-2-ylmethoxy)-1-benzofuran-2-yl]methyl}amino)phenyl]carbonyl}(methyl)amino]propanoic acid]"
15,76%,"Cc1c(C(Nc2ccc(C(=O)N(C)CCC(=O)O)cc2)C2CCCCC2)sc2cccnc12 (stereo not drawn) [Example A145, 3-{[(4-{[cyclohexyl(3-methylthieno[3,2-b]pyridin-2-yl)methyl]amino}phenyl)carbonyl](methyl)amino}propanoic acid]"
16,90%,"Cc1c(C(Nc2ccc(C(=O)N(C)CCC(=O)O)cc2)C2CCCCC2)oc2ccc(N3CCSCC3)cc12 (stereo not drawn) [Example A187, 3-[{[4-({cyclohexyl[3-methyl-5-(thiomorpholin-4-yl)-1-benzofuran-2-yl]methyl}amino)phenyl]carbonyl}(methyl)amino]propanoic acid]"

# More lines, now with the values behind:
row,SMILES,inhibition at 10 µM
1,"CCc1nn(-c2ccc(OC)cc2)cc1C(Nc1ccc(C(=O)N(C)CCC(=O)O)cc1)C1CCCCC1 (stereo not drawn) [Example 51, 3-[{[4-({cyclohexyl[3-ethyl-1-(4-methoxyphenyl)-1H-pyrazol-4-yl]methyl}amino)phenyl]carbonyl}(methyl)amino]propanoic acid]",60%
2,"COc1ccc(-n2cc(C(Nc3ccc(C(=O)NCCC(=O)O)cc3)C3CCCCC3)c(CN3CCOCC3)n2)cc1 (stereo not drawn) [Example 68, 3-({[4-({cyclohexyl[1-(4-methoxyphenyl)-3-(morpholin-4-ylmethyl)-1H-pyrazol-4-yl]methyl}amino)phenyl]carbonyl}amino)propanoic acid]",66%
3,"Cc1nn(-c2ccccc2)cc1C(Nc1ccc(C(=O)N(C)CCC(=O)O)cc1)C1CCCCC1 (stereo not drawn) [Example 18, 3-{[(4-{[cyclohexyl(3-methyl-1-phenyl-1H-pyrazol-4-yl)methyl]amino}phenyl)carbonyl](methyl)amino}propanoic acid]",72%
4,"COc1cccc(-n2cc(C(Nc3ccc(C(=O)N(C)CCC(=O)O)cc3)C3CCCCC3)c(C)n2)c1 (stereo not drawn) [Example 70, 3-[{[4-({cyclohexyl[1-(3-methoxyphenyl)-3-methyl-1H-pyrazol-4-yl]methyl}amino)phenyl]carbonyl}(methyl)amino]propanoic acid]",75%
5,"Cc1cc(F)ccc1-n1cc(C(Nc2ccc(C(=O)NCCC(=O)O)cc2)C2CCCCC2)c(C)n1 (stereo not drawn) [Example 21, 3-({[4-({[1-(4-fluoro-2-methylphenyl)-3-methyl-1H-pyrazol-4-yl](cyclohexyl)methyl}amino)phenyl]carbonyl}amino)propanoic acid]",77%
6,"CCOc1cccc(-n2cc(C(Nc3ccc(C(=O)NCC(C)C(=O)O)cc3)C3CCCCC3)c(CC)n2)c1 (stereo not drawn) [Example 92, 3-({[4-({cyclohexyl[1-(3-ethoxyphenyl)-3-ethyl-1H-pyrazol-4-yl]methyl}amino)phenyl]carbonyl}amino)-2-methylpropanoic acid]",56%
7,"CC(C)Oc1nn(-c2ccc(OC(F)(F)F)cc2)cc1C(Nc1ccc(C(=O)NCCC(=O)O)cc1)C1CCCCC1 (stereo not drawn) [Example 64, 3-[({4-[(cyclohexyl{3-(1-methylethoxy)-1-[4-(trifluoromethoxy)phenyl]-1H-pyrazol-4-yl}methyl)amino]phenyl}carbonyl)amino]propanoic acid]",70%
8,"Cc1nn(-c2ccccc2)cc1C(Nc1ccc(C(=O)NCCC(=O)O)cc1)C1CCCCC1 (stereo not drawn) [Example 17, 3-{[(4-{[cyclohexyl(3-methyl-1-phenyl-1H-pyrazol-4-yl)methyl]amino}phenyl)carbonyl]amino}propanoic acid]",80%
9,"CCCc1nn(-c2ccc(C(F)(F)F)cn2)cc1C(Nc1ccc(C(=O)N(C)CCC(=O)O)cc1)C1CCCCC1 (stereo not drawn) [Example 6, 3-[({4-[(cyclohexyl{3-propyl-1-[5-(trifluoromethyl)pyridin-2-yl]-1H-pyrazol-4-yl}methyl)amino]phenyl}carbonyl)(methyl)amino]propanoic acid]",75%
